The values that follow come from patent US20250122202A1, “EGFR INHIBITOR, PREPARATION METHOD THEREFOR AND USE THEREOF” (SHANDONG NEW TIME PHARMACEUTICAL CO., LTD., priority 2021, published 2025).

One test deals with H1975 EGFR-L858R/T790M. Nature of the test: Cell proliferation inhibition experiment (CCK-8), H1975. To be noted: Homo sapiens, NCI-H1975, 72 h. The format is cell-based. The source says:
(§1) Inhibition rate %=[(A0−AS)/(A0−AC)]×100%.

Test [1] concerns KC-0178:NCI-1975 EGFR-L858R/T790M/C797S. Nature of the test: Cell proliferation inhibition experiment (CCK-8), KC-0178. The format is cell-based. To be noted: Homo sapiens, 72 h.
Description: as §1

A further test relates to A549 EGFR-WT. Nature of the test: Cell proliferation inhibition experiment (CCK-8), A549. To be noted: Homo sapiens, A549, 72 h, read-out: cell proliferation inhibition IC50 (μM) A549, 72 h, CCK-8.
In the next test the test system is HCC827 EGFR-Del19. Nature of the test: Cell proliferation inhibition experiment (CCK-8), HCC827. To be noted: Homo sapiens, 72 h. Format: cell-based.
Description: as §1

The subject of a further test is PC-9 EGFR-Del19. Put plainly: Cell proliferation inhibition experiment (CCK-8), PC-9. Format: cell-based. To be noted: Homo sapiens, 72 h.
Description: as §1

Test [2] concerns the target EGFR D770-N771 ins NPG kinase (Homo sapiens (Human), UniProt P00533, INS770NPG). Nature of the test: In-vitro enzyme experiment 1 (HTRF kinase assay), D770-N771 ins NPG kinase. Format: biochemical. A general note: Time-resolved FRET reads energy transfer from a long-lived donor to a nearby acceptor.
The target in test [3] is EGFR (D770-N771 ins NPG T790M) kinase (Homo sapiens (Human), UniProt P00533, INS770NPG/T790M). Put plainly: In-vitro enzyme experiment 1 (HTRF kinase assay), EGFR D770-N771 ins NPG T790M. Format: biochemical. On the procedure:
The specific experiment was as follows: • 1. Preparation of 1× concentration kinase buffer • 1 volume of 5 times concentration of an enzyme buffer diluted with 4 volumes of distilled water; 5 mM magnesium chloride; 1 mM DTT; and 1 mM MnCl2. • 2. Test method of activity of compound • a) a compound diluent was transferred to each well of an assay plate (784075, Greiner) using Echo 550; • b) the assay plate was sealed and centrifuged at 1,000 g for 1 min; • c) 2×EGFR (D770-N771 ins NPG T790M) was prepared in a 1× kinase buffer; • d) 5 μl of the 2×EGFR (D770-N771 ins NPG T790M) was added to a 384-well assay plate (784075, Greiner); • e) the assay plate was centrifuged at 1,000 g for 30 s and incubated at room temperature for 10 min; • f) 2× TK-substrate-biotin (2 μM) and ATP were added to the 1× kinase buffer and mixed; • g) the reaction was started after adding 5 μl of the TK-substrate-biotin (2 μM) and ATP mixture; • h) the assay plate was centrifuged at 1,000 g for 30 s; and the assay plate was sealed and incubated at room temperature for 40 min; • i) 4× Sa-XL 665 was prepared in an HTRF detection buffer; • j) 5 μl of the Sa-XL 665 and 5 μl of a TK-antibody-cryptate were added to each well of the assay plate; • k) the assay plate was centrifuged at 1,000 g for 30 s and incubated at room temperature for 1 h; and • l) fluorescence signals at 615 nm (cryptate) and 665 nm (XL665) were read on an Envision 2104 reader. • 3. Data analysis • 3.1 Calculation of ratio (665/615 nm) of each well • 3.2 Calculation of inhibition rate
[formula] • 3.3 Calculation of IC50 value of compound and drawing dose-effect curve of compound • IC50 values were calculated using GraphPad 6.0 by applying a non-linear regression curve (dose-effect relationship-variable slope) of the logarithm of the compound concentration versus the inhibition rate.
Y=lowest value+(highest value−lowest value)/(1+10^((Log IC50−X)×slope)) • X: logarithm of inhibitor concentration; and Y: inhibition rate. • 3.4 Double test report • 3.4.1 After one tester completed a report, another tester again checked the report to ensure that data analysis was correct. • 3.4.2 The data was exported from the software and manually analyzed. • 3.4.2.1 The rate was converted into the inhibition rate. All the IC50 values were first calculated with the inhibition rate using Prism GraphPad 6.0. • 3.4.2.2 Then the IC50 value was recalculated using the ratio to check the accuracy of the analysis. • 3.4.3 The number of all the compounds was ensured to be correct.

Test [4] concerns KC-1362 BaF3-EGFR D770-N771 ins NPG cells. Nature of the test: Anti-proliferative activity on KC-1362 BaF3-EGFR D770-N771 ins NPG cells. The format is cell-based. To be noted: Ba/F3 EGFR.
Test [5] has as its system KC-1474:PC-9 EGFR-Del19/T790M/C797S. Nature of the test: Cell proliferation inhibition experiment (CCK-8), KC-1474. The format is cell-based. To be noted: Homo sapiens, 72 h.
Description: as §1

Chain of EGFR D770-N771 ins NPG kinase (P00533 other isoform, or with tags, fused parts or gaps del 1-668/ins NPG behind 770 limits assumed): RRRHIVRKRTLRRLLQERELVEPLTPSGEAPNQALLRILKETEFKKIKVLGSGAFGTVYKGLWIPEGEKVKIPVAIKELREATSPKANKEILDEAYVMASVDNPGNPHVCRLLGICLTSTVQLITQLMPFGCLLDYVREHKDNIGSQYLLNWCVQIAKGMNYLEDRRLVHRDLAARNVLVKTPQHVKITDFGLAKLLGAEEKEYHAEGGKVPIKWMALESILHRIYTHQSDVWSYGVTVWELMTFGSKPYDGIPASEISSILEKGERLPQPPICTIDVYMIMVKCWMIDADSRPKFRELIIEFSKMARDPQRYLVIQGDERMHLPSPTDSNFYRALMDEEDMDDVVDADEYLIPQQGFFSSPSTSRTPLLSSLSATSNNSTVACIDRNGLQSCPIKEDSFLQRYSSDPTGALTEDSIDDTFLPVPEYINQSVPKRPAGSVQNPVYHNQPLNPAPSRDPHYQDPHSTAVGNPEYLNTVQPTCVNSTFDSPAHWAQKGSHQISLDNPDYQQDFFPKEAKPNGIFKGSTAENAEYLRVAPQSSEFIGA
Chain of EGFR (D770-N771 ins NPG T790M) kinase (P00533 other isoform, or with tags, fused parts or gaps T790M/del 1-668/ins NPG behind 770 limits assumed): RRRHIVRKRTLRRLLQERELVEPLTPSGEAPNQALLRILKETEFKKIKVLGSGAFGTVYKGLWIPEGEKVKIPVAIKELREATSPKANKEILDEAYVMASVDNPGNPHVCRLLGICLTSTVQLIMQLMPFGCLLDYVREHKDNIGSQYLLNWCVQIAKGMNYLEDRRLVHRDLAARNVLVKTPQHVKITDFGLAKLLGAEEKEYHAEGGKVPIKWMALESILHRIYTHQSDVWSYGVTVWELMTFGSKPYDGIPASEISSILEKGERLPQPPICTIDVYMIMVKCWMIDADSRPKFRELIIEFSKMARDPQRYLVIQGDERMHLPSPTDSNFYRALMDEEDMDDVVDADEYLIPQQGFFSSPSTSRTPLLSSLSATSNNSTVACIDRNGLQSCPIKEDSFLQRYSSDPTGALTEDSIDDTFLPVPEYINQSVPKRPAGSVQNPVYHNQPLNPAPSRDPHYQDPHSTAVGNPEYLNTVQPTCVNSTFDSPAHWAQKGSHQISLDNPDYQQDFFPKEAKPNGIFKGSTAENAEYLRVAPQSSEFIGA

Take `O=C(c1ccc(F)cc1)c1c[nH]c2nc(Nc3ccc(N4CCOCC4)cc3)nc(N[C@H]3CC[C@H](CO)CC3)c12` [Example 79]: the IC50 with H1975 EGFR-L858R/T790M is 0.1 to 1 µM; in test [1], less than 0.1 µM; in the test with A549 EGFR-WT, 0.1 to 1 µM; in the test with HCC827 EGFR-Del19 it was less than 0.1 µM; in the test on PC-9 EGFR-Del19 it was 0.1 to 1 µM.
Take `C=CC(=O)N1CC[C@@H](Nc2nc(Nc3cnn(C)c3)nc3[nH]cc(C(=O)c4ccc(F)cc4)c23)C1` [Example 109]: the IC50 was 3 nM in test [2]; 0.1 to 1 µM in the test on H1975 EGFR-L858R/T790M; 7.27 nM in [3]; 120 nM in test [4]; 0.1 to 1 µM in the test on A549 EGFR-WT; 0.1 to 1 µM with HCC827 EGFR-Del19. Moreover, the IC50 in the test with PC-9 EGFR-Del19 is less than 0.1 µM.
Regarding `CN1CCN(c2ccc(Nc3nc(N[C@H]4CC[C@H](CO)CC4)c4c(C(=O)c5ccc(F)cc5)c[nH]c4n3)cc2)CC1` [Example 42], the IC50 was 4.44 nM in [2]; 0.1 to 1 µM with H1975 EGFR-L858R/T790M; 35 nM in [4]; 1 to 2 µM in test [1]; 1 to 2 µM in the test on A549 EGFR-WT; less than 0.1 µM in test [5]. For the same compound, the IC50 was 0.1 to 1 µM in the test on HCC827 EGFR-Del19 and less than 0.1 µM in the test with PC-9 EGFR-Del19.
